The experiment has as its target human NAMPT (Homo sapiens, UniProt P43490). The experiment can be described thus: Human recombinant enzyme assay (NMN fluorescence biochemical assay, activation of NAMPT). As to the method: Compounds described herein were assayed for their ability to stimulate the synthesis of nicotinamide mononucleotide (NMN) by the enzyme NAMPT. The human recombinant enzyme assay measures the activation of the enzyme activity by compounds using recombinant enzyme and substrates in a buffered cell-free system. The assay conditions closely mimic cellular environments. Dose responses were measured using an assay to detect the formation of nicotinamide mono-nucleotide. All experiments were performed in the 384-well format. […] Enzyme reactions were initiated with the addition of 10 μL of a solution containing the substrates. The final assay conditions were as follows: 6 nM human NAMPT, 2.5 mM ATP, 20 μM PRPP and 150 μM nicotinamide in 50 mM HEPES, pH 7.2, 1 mM DTT, 1 mM CHAPS 50 mM NaCl, 100 mM MgCl2. Following an incubation of 60 min at ambient temperature, 10 μL of 20% acetophenone in DMSO was added, followed by 10 μL of 2 M KOH and 40 μL of formic acid. The plates were read for fluorescence (Excitation/Emission=355 nm/460 nm) using an EnVision plate reader after 40 mins of incubation at ambient temperature.

Where [1] appears, read: Table A, human recombinant NAMPT, NMN formation, 60 min.
[2] abbreviates: Table A, human recombinant NAMPT, NMN formation, 60 min, read-out: EC50 Human.

Read-outs that look alike come from different tables or passages of the source.

human NAMPT, sequence (P43490 whole entry): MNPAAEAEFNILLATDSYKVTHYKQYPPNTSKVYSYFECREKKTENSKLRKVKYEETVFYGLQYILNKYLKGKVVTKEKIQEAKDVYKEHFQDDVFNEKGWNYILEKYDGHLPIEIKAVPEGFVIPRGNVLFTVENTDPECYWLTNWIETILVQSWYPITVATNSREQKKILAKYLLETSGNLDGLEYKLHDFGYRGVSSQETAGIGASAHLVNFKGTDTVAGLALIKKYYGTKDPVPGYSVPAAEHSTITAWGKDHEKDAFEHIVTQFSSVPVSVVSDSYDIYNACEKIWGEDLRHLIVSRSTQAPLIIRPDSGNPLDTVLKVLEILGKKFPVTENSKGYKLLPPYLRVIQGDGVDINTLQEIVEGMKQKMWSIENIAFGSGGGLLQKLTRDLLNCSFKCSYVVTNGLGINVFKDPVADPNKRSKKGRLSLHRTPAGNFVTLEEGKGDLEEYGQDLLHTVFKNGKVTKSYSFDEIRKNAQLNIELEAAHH

A word on the EC50: it is the midpoint of the concentration-response curve. On to `COc1ccc(CNC(=O)NC2CC3(C2)CC(C(=O)N2CCCc4ccc(F)cc42)C3)cc1` (centres unmarked) [Compound 106, 1-(6-(7-fluoro-1,2,3,4-tetrahydroquinoline-1-carbonyl)spiro[3.3]heptan-2-yl)-3-(4-methoxybenzyl)urea], for which the “AC1.4 Human” value under setting [1] stood at 0.1 µM. Besides, the EC50 under setting [2] was determined as 1.8 µM. `CC(C)(C)OC(=O)NC1CC2(CC(NC(=O)NCc3ccc(CO)cc3)C2)C1` (centres unmarked) [Compound 9, tert-butyl (6-(3-(4-(hydroxymethyl)benzyl)ureido)spiro[3.3]heptan-2-yl)carbamate]: the “AC1.4 Human” value under setting [1] was 3.4 µM. Besides, the concentration giving a half-maximal response (EC50) under setting [2] was determined as 47 µM.

As to `COc1ccc(CNC(=O)NC2CC3(C2)CN(C(=O)c2cccc(C(C)(C)C)c2)C3)cc1` [Compound 174, 1-(2-(3-(tert-butyl)benzoyl)-2-azaspiro[3.3]heptan-6-yl)-3-(4-methoxybenzyl)urea], the “AC1.4 Human” value under setting [1] was found to be 2.0 µM. The EC50 under setting [2] is 29.5 µM. On the same counts, the results for `Cc1cccc(CN(C)C(=O)CCCCCNC(=O)NCc2ccc(Cl)cc2)c1` [Compound 267, 6-(3-(4-chlorobenzyl)ureido)-N-methyl-N-(3-methylbenzyl)hexanamide] are 2.0 µM and 7.9 µM. On to `COc1ccc(CNC(=O)NC2CC3(C2)CC(C(=O)NC2CCCc4ccc(F)cc42)C3)cc1` (stereo in doubt) [Compound 99, (R)-N-(7-fluoro-1,2,3,4-tetrahydronaphthalen-1-yl)-6-(3-(4-methoxybenzyl)ureido)spiro[3.3]heptane-2-carboxamide], for which the “AC1.4 Human” value under setting [1] came to 5.1 µM. Moreover, the EC50 under setting [2] is 3.9 µM.

For `COc1ccc(CNC(=O)NC2CC3(C2)CN(C(=O)C2CCCc4ccccc42)C3)cc1` (centres unmarked) [Compound 137, 1-(4-methoxybenzyl)-3-(2-(1,2,3,4-tetrahydronaphthalene-1-carbonyl)-2-azaspiro[3.3]heptan-6-yl)urea], the “AC1.4 Human” value under setting [1] turned out to be 13.8 µM. Besides, the EC50 under setting [2] was found to be 53.3 µM. As for `NC(=O)c1ccc(CNC(=O)NC2CC(c3ccccc3)C2)cc1` (centres unmarked) [Compound 4, 4-((3-(3-phenylcyclobutyl)ureido)methyl)benzamide], the “AC1.4 Human” value under setting [1] worked out at 9.9 µM. As for `CC1CCN(CC2CC3(C2)CC(NC(=O)NCc2ccc(Cl)cc2)C3)C1=O` (centres unmarked) [Compound 244, 1-(4-chlorobenzyl)-3-(6-((3-methyl-2-oxopyrrolidin-1-yl)methyl)spiro[3.3]heptan-2-yl)urea], under setting [1], the “AC1.4 Human” value worked out at 3.4 µM. Further, the EC50 under setting [2] came to 7.3 µM. For `COc1ccc(CNC(=O)NC2CC3(C2)CC(C(=O)NC2CC(c4ccncc4)C2)C3)cc1` (centres unmarked) [Compound 78, 6-(3-(4-methoxybenzyl)ureido)-N-(3-(pyridin-4-yl)cyclobutyl)spiro[3.3]heptane-2-carboxamide], in that order: 4.4 µM and 45.2 µM. Turning to `COc1ccc(CNC(=O)NC2CC3(C2)CN(C(=O)Nc2cnc(C)nc2)C3)cc1` [Compound 133, 6-(3-(4-methoxybenzyl)ureido)-N-(2-methylpyrimidin-5-yl)-2-azaspiro[3.3]heptane-2-carboxamide], the “AC1.4 Human” value under setting [1] turned out to be 17.5 µM. Further, under setting [2], the 50% effective concentration (EC50) came to 61.2 µM. Take `COc1ccc(CNC(=O)NC2CC3(C2)CN(C(=O)c2cccc(S(C)(=O)=O)c2)C3)cc1` [Compound 180, 1-(4-methoxybenzyl)-3-(2-(3-(methylsulfonyl)benzoyl)-2-azaspiro[3.3]heptan-6-yl)urea]: the “AC1.4 Human” value under setting [1] came out at 7.8 µM. Further, the EC50 under setting [2] stood at 37.6 µM.

Regarding `O=C(NCCCCCC(=O)N1CCOCC1)NCc1ccc(Cl)cc1` [Compound 259, 1-(4-chlorobenzyl)-3-(6-morpholine-6-oxohexyl)urea], the “AC1.4 Human” value under setting [1] stood at 8.6 µM. Also, under setting [2], the EC50 was found to be 59.4 µM. As to `COc1ccc(CNC(=O)NC2CC3(C2)CN(C(=O)Cc2ccccc2C(F)(F)F)C3)cc1` [Compound 41, 1-(4-methoxybenzyl)-3-(2-(2-(2-(trifluoromethyl)phenyl)acetyl)-2-azaspiro[3.3]heptan-6-yl)urea], the “AC1.4 Human” value under setting [1] came out at 5.0 µM. The EC50 under setting [2] came out at 53.5 µM.

Turning to `O=C(NCc1ccc(Cl)cc1)NC1CC2(C1)CC(NC(=O)c1cccc(O)c1)C2` (centres unmarked) [Compound 200, N-(6-(3-(4-chlorobenzyl)ureido)spiro[3.3]heptan-2-yl)-3-hydroxybenzamide], the “AC1.4 Human” value under setting [1] is 17.1 µM. The EC50 under setting [2] worked out at 18.2 µM. For `O=C(NCc1ccc(Cl)cc1)NC1CC2(CC(Cc3cccnc3)C2)C1` (centres unmarked) [Compound 345, 1-(4-chlorobenzyl)-3-(6-(pyridin-3-ylmethyl)spiro[3.3]heptan-2-yl)urea], the “AC1.4 Human” value under setting [1] is 1.6 µM. Besides, the concentration giving a half-maximal response (EC50) under setting [2] amounted to 0.6 µM. Consider `Cc1cccc(C)c1C(=O)N1CCC(CCCCNC(=O)NCc2ccc(Cl)cc2)CC1` [Compound 319, 1-(4-chlorobenzyl)-3-(4-(1-(2,6-dimethylbenzoyl)piperidin-4-yl)butyl)urea], for which, under setting [1], the “AC1.4 Human” value worked out at 0.8 µM. The EC50 under setting [2] was 0.8 µM. Consider `CC(C)c1cccc(C(=O)N2CC[C@]3(C2)C[C@@H](NC(=O)NCc2ccc(Cl)cc2)C3)c1` [Compound 169, 1-(4-chlorobenzyl)-3-((2r,4s)-6-(3-isopropylbenzoyl)-6-azaspiro[3.4]octan-2-yl)urea], for which the “AC1.4 Human” value under setting [1] was 7.1 µM. In addition, the EC50 under setting [2] was 9.3 µM. As to `COc1ccc(CNC(=O)NC2CC3(C2)CC(C(=O)N(C)[C@@H](C)c2ccccc2F)C3)cc1` (stereo partly drawn) [Compound 60, (S)-N-(1-(2-fluorophenyl)ethyl)-6-(3-(4-methoxybenzyl)ureido)-N-methylspiro[3.3]heptane-2-carboxamide], the “AC1.4 Human” value under setting [1] came to 0.3 µM. The EC50 under setting [2] was 6.1 µM. Regarding `Cc1cc(C(=O)N2CC3(CC(NC(=O)NCc4ccc(C(N)=O)cc4)C3)C2)ccn1` [Compound 226, 4-((3-(2-(2-methylisonicotinoyl)-2-azaspiro[3.3]heptan-6-yl)ureido)methyl)benzamide], the “AC1.4 Human” value under setting [1] stood at 2.9 µM. The EC50 under setting [2] was 31.4 µM.

Consider `COc1ccc(CNC(=O)NC2CC3(CC(CN4CCCc5c(F)cc(F)cc54)C3)C2)cc1` (centres unmarked) [Compound 127, 1-(6-((5,7-difluoro-3,4-dihydroquinolin-1(2H)-yl)methyl)spiro[3.3]heptan-2-yl)-3-(4-methoxybenzyl)urea], for which the “AC1.4 Human” value under setting [1] was 1.4 µM. For the same compound, the EC50 under setting [2] was found to be 33.1 µM. For the compound `Cc1ccccc1C(=O)N1CCC(CCCCNC(=O)NCc2ccc(C(N)=O)cc2)CC1` [Compound 321, 4-((3-(4-(1-(2-methylbenzoyl)piperidin-4-yl)butyl)ureido)methyl)benzamide], the “AC1.4 Human” value under setting [1] was 0.1 µM. For the same compound, the EC50 under setting [2] was 2.1 µM. With `CC(C)(C)OC(=O)NC1CCC(NC(=O)NCc2ccc(C(N)=O)cc2)CC1` (centres unmarked) [Compound 12, tert-butyl (4-(3-(4-carbamoylbenzyl)ureido)cyclohexyl)carbamate], under setting [2], the EC50 came out at 40 µM.

On to `COc1ccc(CNC(=O)NC2CC3(C2)CC(C(=O)NCc2ccncc2)C3)cc1` (centres unmarked) [Compound 50, 6-(3-(4-methoxybenzyl)ureido)-N-(pyridin-4-ylmethyl)spiro[3.3]heptane-2-carboxamide], for which, under setting [1], the “AC1.4 Human” value worked out at 17.9 µM. The 50% effective concentration (EC50) under setting [2] stood at 32.8 µM. With `COc1ccc(CNC(=O)NC2CC3(C2)CN(C(=O)Cc2ccccc2F)C3)cc1` [Compound 38, 1-(2-(2-(2-fluorophenyl)acetyl)-2-azaspiro[3.3]heptan-6-yl)-3-(4-methoxybenzyl)urea], the concentration for a half-maximal effect (EC50) worked out at 43.7 µM. Besides, under setting [1], the “AC1.4 Human” value was 13.7 µM.

In the case of `COc1ccc(CNC(=O)NC2CC3(C2)CC(C(=O)NCC(C)(C)c2ccccc2F)C3)cc1` (centres unmarked) [Compound 55, N-(2-(2-fluorophenyl)-2-methylpropyl)-6-(3-(4-methoxybenzyl)ureido)spiro[3.3]heptane-2-carboxamide], the “AC1.4 Human” value under setting [1] turned out to be 1.1 µM. Besides, the EC50 under setting [2] amounted to 40.6 µM.

For the compound `CN1CCN(CC2CC3(C2)CC(NC(=O)NCc2ccc(Cl)cc2)C3)CC1=O` (centres unmarked) [Compound 238, 1-(4-chlorobenzyl)-3-(6-((4-methyl-3-oxopiperazin-1-yl)methyl)spiro[3.3]heptan-2-yl)urea], the “AC1.4 Human” value under setting [1] is 3.4 µM. Besides, the EC50 under setting [2] stood at 20.3 µM.

As for `COc1ccc(CNC(=O)NC2CC3(C2)CC(C(=O)N2CC(c4ccccc4)C2)C3)cc1` (centres unmarked) [Compound 61, 1-(4-methoxybenzyl)-3-(6-(3-phenylazetidine-1-carbonyl)spiro[3.3]heptan-2-yl)urea], the “AC1.4 Human” value under setting [1] came to 2.5 µM. Under setting [2], the EC50 was determined as 34.9 µM.

On to `NC(=O)c1ccc(CNC(=O)NC2CC3(CC(NCc4ccccc4)C3)C2)cc1` (centres unmarked) [Compound 24], for which the “AC1.4 Human” value under setting [1] stood at 8.1 µM. Also, the concentration giving a half-maximal response (EC50) under setting [2] stood at 29.1 µM. `COc1ccc(CNC(=O)NC2CC3(C2)CC(c2nc(-c4ccccc4)co2)C3)cc1` (centres unmarked) [Compound 326, 1-(4-methoxybenzyl)-3-(6-(4-phenyloxazol-2-yl)spiro[3.3]heptan-2-yl)urea]: the “AC1.4 Human” value under setting [1] was found to be 4.5 µM. For `COc1ccc(CNC(=O)NC2CC3(C2)CN(C(=O)c2cccc(OC)c2)C3)cc1` [Compound 176], the “AC1.4 Human” value under setting [1] was 2.0 µM. The half-maximal effective concentration (EC50) under setting [2] is 21.9 µM. With `COc1ccc(CNC(=O)NC2CC3(C2)CC(C(=O)N2CCCC2c2ccccc2)C3)cc1` (centres unmarked) [Compound 44, 1-(4-methoxybenzyl)-3-(6-(2-phenylpyrrolidine-1-carbonyl)spiro[3.3]heptan-2-yl)urea], the “AC1.4 Human” value under setting [1] came to 10.1 µM. For the same compound, the EC50 under setting [2] stood at 36.5 µM.

These data come from US20230348369A1 (Cytokinetics, Inc., priority 2020, published 2023).
